Measurements from paper PMC10447463, “Data-mining unveils structure–property–activity correlation of viral infectivity enhancing self-assembling peptides” (Nature Communications, 2023).
Read-outs that look alike come from different tables or passages of the source.

Tests used:
[1] = format: physicochemical; design: key to Fibril / Fibril Formation / TEM 2cat / Fibril: 1 = fibrils present; 0 non-fibrillar structures; settings: for Fibril / Fibril Formation: 1 mg/mL, uranyl acetate stain, qualitative
[2] = test system: HIV-1 infection of TZM-bl cells; assay: HIV-1 infectivity enhancement assay, β-galactosidase luminescence; format: cell-based; settings: for Rel-EFC: infection relative to EF-C (QCKIKQIINMWQ = 1); for Log10 Infection Rel EFC: log10 of infection relative to EF-C; for Log Infectivity: Log10 infection relative to EF-C; for Log10 Infection Rel EF-C: HIV-1 infection of TZM-bl cells; for Infection (FigS19 A): mean of 3 replicates; for Abs. Inf.: β-galactosidase luminescence
[3] = Turbidity, derived count rate of scattered light; format: physicochemical; settings: for Count Rate / kcps: derived count rate of scattered light at 633 nm, 173°, from zeta-potential measurement, 0.1 mg/mL in 1 mM KCl after 1 d at 1 mg/mL in PBS, turbidity / microscopic aggregation, mean of triplicate; for Log Count Rate: log of derived count rate
Procedure, shortened: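 One-day room-temperature aggregation at 1 mg/mL in PBS (pH 7.4) preceded measurement; samples then went into 1 mM KCl. Triplicates per sample, two independent experiments averaged.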

[4] = Fig S10 panel D, fibril category by TEM
[5] = TEM, 1 = fibrils present, 0 = non-fibrillar
[6] = TEM, 1 = fibrils present, 0 = non-fibrillar structures
[7] = category: fibrils present or non-fibrillar
[8] = Fig. S7 panel A (plotted against β-sheet content), TZM-bl cells, asymmetric std dev errors
[9] = Fig. S7 panel B (plotted against CR), rounded to two decimals, TZM-bl cells, asymmetric std dev errors
[10] = Log10 of infection rate relative to EF-C, Figure 3A source data
[11] = infection rate relative to EF-C, log10, data of Figure 2D
[12] = infection rate relative to EF-C, log10, source data of Figure 2C
[13] = Log10 of infection relative to EF-C, all peptides of FigS16
[14] = Log10 of derived count rate of scattered light (turbidity)
[15] = log10 of derived count rate of scattered light (turbidity)
[16] = turbidity, Log10 of derived count rate of scattered light, Figure 3A source data
[17] = FigS12 panel A, fibril category by TEM
[18] = absolute HIV-1 infection signal, TZM-bl cells

Row | Substance | TEM 2cat [1, 4] | Fibril ([1]; Fig S10 panel E) | Fibril / Fibril Formation ([1]; TEM) | Fibril [1, 5] | Fibril [1, 6] | TEM 2cat [1, 7] | Rel-EFC ([2]; 1.3 µM peptide) | Log10 Infection Rel EFC ([2]; 1.3 µM peptide) | Log Infectivity [2, 8] | Log Infectivity [2, 9] | Log10 Infection Rel EF-C [2, 10] | Log10 Infection Rel EF-C [2, 11] | Log10 Infection Rel EF-C [2, 12] | Log10 of Rel to EFC (Feb2021) [2, 13] | Log10 Count Rate [3, 14] | Count Rate / kcps [3] [kcps] | Log10 Count Rate [3, 15] | Log10 Count Rate [3, 16] | further results
1 | CEFEFQFNMWQ | 1 | 1 | 1 | 1 | 1 | 1 | 0,14 | -0,85 | -0.8509 | -0.85 | -0.85 | -0.8509 | -0.8509 | -0.85 | 2.27 | 186 | 2.27 | 2.27 | 
2 | CQFQFQF | 1 |  | 1 | 1 | 1 | 1 | 0,35 | -0,45 | -0.4519 |  | -0.45 | -0.4519 | -0.4519 | -0.45 | 3.899 | 7929 | 3.899 | 3.899 | Log10 Count Rate ([3]; logarithm of count rate in kcps): 3.899
3 | HHHHKIKIKIKIWWWW [TM4] |  |  |  |  |  |  |  |  |  |  |  |  |  |  |  |  |  |  | TEM: 1= fibrils, 0= aggregates (micelle), 0.5 = aggregates and fibrils, -1 = nothing obersved, STD prep ([1]; STD prep): 0.5; Infection (FigS19 A) ([2]; 0.26 µM peptide): 15326.66667 RLU/s; Infection (FigS19 A) ([2]; 1.3 µM peptide): 20796.66667 RLU/s; Infection (FigS19 A) ([2]; 6.5 µM peptide): 12450 RLU/s; Absolute Infectivity / RLU /s (Feb2021) ([2]; Feb2021, figures match the 1.3 µM column): 20796.66667 RLU /s; n-fold to virus (Feb2021) ([2]; Feb2021, infectivity relative to virus only): 15.92; Log10 of Rel to EFC (Feb2021) ([2]; Feb2021, log10 of infectivity relative to EF-C): -0.4216; Rel-to EFC (Feb-2021) ([2]; Feb2021, n-fold infectivity relative to EF-C): 0.3788; Rel-to EFC ([2]; Fig S8 panels B, D, infectivity enhancement relative to EF-C): 0.3788; n-fold to virus ([2]; Fig S8 panels B, D, infectivity n-fold relative to virus alone): 15.92; infectivity ([2]; infectivity class (low / medium / high) of each library peptide, main list in c1-c6, same classes repeated in sub-lists of sequences containing the hydrophobicity/charge patterns P+,H0,P+,H0,P0,H0,P0, P+,H0,P0,H0,P0,H0,P0, P+,H0,P0,H0): medium; Log10 Inf. rel. to EF-C ([2]; log10 of HIV-1 infection of TZM-bl cells relative to EF-C, Fig S15 source data, asymmetric std dev errors): -0.4216; Log Count Rate ([3]; Fig S8 panels A, C, asymmetric log errors): 4.376; Log Count Rate ([3]; Fig S8 panels B, D): 4.376; Count Rate ([3]; Fig S8 panels B, D, turbidity, derived count rate of scattered light): 23756.7; Zeta Count Rate Category ([3]; category 1 / 0, no key given): 1; Zeta Count Rate / kcps ([3]; derived count rate of scattered light): 23756.66667 kcps
4 | RGDSKIKIQIC | 1 | 1 | 1 | 1 | 1 | 1 | 0,6 | -0,22 | -0.2249 | -0.22 | -0.22 | -0.2249 | -0.2249 | -0.22 | 3.431 | 2699 | 3.431 | 3.431 | 
5 | RGDKIKIQINMWQ | 1 | 1 | 1 | 1 | 1 | 1 | 0,76 | -0,12 | -0.1175 | -0.12 | -0.12 | -0.1175 | -0.1175 | -0.12 | 3.1914 | 1554 | 3.1914 | 3.1914 | 
6 | KVKVQVV | 0 |  | 0 | 0 | 0 |  | 0,01 | -2,04 | -2.04 |  | -2.04 | -2.04 | -2.04 |  | 1.443 | 28 | 1.443 | 1.443 | TEM 2cat [1, 17]: 0; Fibril ([1]; FigS12 panel B, TEM): 0
7 | KIKIQINMWWQ | 0 |  | 0 | 0 | 0 | 0 | 3,21 | 0,51 | 0.5063 |  | 0.51 | 0.5063 | 0.5063 | 0.51 | 3.59 | 3893 | 3.59 | 3.59 | Log10 of Rel to EFC (Feb2021) ([2]; Log10 of infection relative to EF-C, second listing, peptides with TEM 2cat 0): 0.51; Abs. Inf. [2, 18]: 17976.66667; Zeta Count Rate ([3]; peptides with TEM 2cat 0): 3893 kcp
8 | CKFKQFFNMWQ |  | 1 | 1 | 1 | 1 | 1 | 0,61 | -0,21 | -0.2148 | -0.21 | -0.21 | -0.2148 | -0.2148 | -0.21 | 3.914 | 8210 |  | 3.914 | TEM 2cat ([1]; Fig S10 panel D): 1; Abs. Inf. ([2]; absolute infection signal, HIV-1 on TZM-bl cells): 23486.66667; Log10 Inf. rel. to EF-C ([2]; log10 of HIV-1 infection of TZM-bl cells relative to EF-C (EF-C = 0)): -0.2148; Log10 Count Rate ([3]; turbidity, log10 of derived count rate of scattered light): 3.914
9 | KFKFQFW | 1 |  | 1 | 1 | 1 | 1 | 0,16 | -0,79 | -0.7899 |  | -0.79 | -0.7899 | -0.7899 | -0.79 | 2.086 | 122 | 2.086 | 2.086 | Abs. Inf. [2, 18]: 4953
10 | MKIKIQINM | 1 |  | 1 | 1 | 1 | 1 | 0,27 | -0,56 | -0.5635 |  | -0.56 | -0.5635 | -0.5635 | -0.56 | 2.9918 | 981 | 2.9918 | 2.9918 | 
11 | KIKIQIRGD | 1 |  | 1 | 1 | 1 |  | 0,02 | -1,68 | -1.678 |  | -1.68 | -1.678 | -1.678 |  | 2.057 | 114 | 2.057 | 2.057 | TEM 2cat [1, 17]: 1; Fibril ([1]; FigS12 panel B, TEM): 1
12 | KIKIKIKI | 0 |  | 0 | 0 | 0 |  | 0,03 | -1,49 | -1.487 |  | -1.49 | -1.487 | -1.487 |  | 2.191 | 155 | 2.191 | 2.191 | TEM 2cat [1, 17]: 0; Fibril ([1]; FigS12 panel B, TEM): 0
